Patent US20110136854A1, “NOVEL 9-AZA-BICYCLO[3.3.1]NON-3-YLOXY CHROMEN-2-ONE DERIVATIVES AND THEIR USE AS MONOAMINE NEUROTRANSMITTER RE-UPTAKE INHIBITORS” (NeuroSearch A/S, priority 2008, published 2011)
Where a name gives a salt, the structure may show the parent alone. Read-outs that look alike come from different tables or passages of the source.

Columns and labels:
Assay type in all cases: biochemical
[1] = molecular target: T1, reuptake of serotonine (5-HT) in synaptosomes (Rattus norvegicus, UniProt P31652); assay: Inhibition of 5-HT reuptake in synaptosomes
T1 construct: serotonine (5-HT) in synaptosomes as described in WO 97/16451; from tissue
Description: (§1) Compounds of the invention may be tested for their ability to inhibit reuptake of the monoamines dopamine, noradrenaline and serotonin in synaptosomes e.g. such as described in WO 97/30997 (NeuroSearch NS) or WO 97/16451 (NeuroSearch A/S). Based on the balanced activity observed in these tests the compound of the invention is considered useful for the treatment, prevention or alleviation of a disease or a disorder or a condition of a mammal, including a human, which disease, disorder or condition is responsive to inhibition of monoamine neurotransmitter re-uptake in the central nervous system.
(§2) Compounds were tested for their ability to inhibit the reuptake of the mono-amine neurotransmitters dopamine (DA) noradrenaline (NA) and serotonine (5-HT) in synaptosomes as described in WO 97/16451 (NeuroSearch NS).
(§3) The test values are given as IC50 (the concentration (μM) of the test substance which inhibits the specific binding of ^3H-DA, ^3H-NA, or ^3H-5-HT by 50%).

[2] = molecular target: T2, reuptake of dopamine (DA) in synaptosomes (Rattus norvegicus, UniProt P23977); assay: Inhibition of DA reuptake in synaptosomes; conditions: 3H-DA, read-out: DA-uptake IC50
T2 construct: in synaptosomes as described in WO 97/16451; from tissue
Description: as §1, §2, §3

[3] = molecular target: T3, reuptake of noradrenaline (NA) in synaptosomes (Rattus norvegicus, UniProt Q63380); assay: Inhibition of NA reuptake in synaptosomes
T3 construct: in synaptosomes as described in WO 97/16451; from tissue
Description: as §1, §2, §3

T1 sequence (P31652 whole entry): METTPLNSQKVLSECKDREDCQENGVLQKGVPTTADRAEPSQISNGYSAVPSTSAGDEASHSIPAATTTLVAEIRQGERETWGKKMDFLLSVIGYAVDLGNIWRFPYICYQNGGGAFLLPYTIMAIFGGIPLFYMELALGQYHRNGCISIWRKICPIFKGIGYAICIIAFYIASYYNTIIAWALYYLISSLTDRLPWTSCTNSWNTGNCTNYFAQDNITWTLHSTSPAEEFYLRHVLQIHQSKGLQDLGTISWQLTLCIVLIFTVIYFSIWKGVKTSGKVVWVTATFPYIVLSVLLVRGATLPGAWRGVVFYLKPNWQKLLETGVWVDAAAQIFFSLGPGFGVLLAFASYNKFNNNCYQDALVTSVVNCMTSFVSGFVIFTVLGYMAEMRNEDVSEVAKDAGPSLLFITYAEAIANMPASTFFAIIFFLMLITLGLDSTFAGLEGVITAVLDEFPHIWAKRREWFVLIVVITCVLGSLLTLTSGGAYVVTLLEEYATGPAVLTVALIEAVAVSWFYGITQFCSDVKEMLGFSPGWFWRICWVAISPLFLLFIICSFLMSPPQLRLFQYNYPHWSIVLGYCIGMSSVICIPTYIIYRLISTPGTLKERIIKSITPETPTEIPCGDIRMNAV
T3 sequence (Q63380 1-617): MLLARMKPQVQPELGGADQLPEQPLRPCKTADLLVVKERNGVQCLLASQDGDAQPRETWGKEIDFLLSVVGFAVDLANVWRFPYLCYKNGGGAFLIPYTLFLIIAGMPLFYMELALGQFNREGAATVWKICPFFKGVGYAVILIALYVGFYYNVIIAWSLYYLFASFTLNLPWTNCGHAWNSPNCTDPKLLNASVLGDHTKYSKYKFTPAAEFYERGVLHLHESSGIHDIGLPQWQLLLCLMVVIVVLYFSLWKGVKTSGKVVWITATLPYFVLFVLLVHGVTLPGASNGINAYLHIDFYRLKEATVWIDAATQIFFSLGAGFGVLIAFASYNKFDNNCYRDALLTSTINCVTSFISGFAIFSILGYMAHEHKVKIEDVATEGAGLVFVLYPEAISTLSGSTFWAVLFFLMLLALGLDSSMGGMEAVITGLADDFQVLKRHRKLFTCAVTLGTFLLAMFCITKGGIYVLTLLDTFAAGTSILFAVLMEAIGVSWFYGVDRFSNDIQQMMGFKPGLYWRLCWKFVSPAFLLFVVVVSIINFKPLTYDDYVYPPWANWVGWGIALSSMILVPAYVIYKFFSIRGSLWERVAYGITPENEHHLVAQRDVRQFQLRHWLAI
T2 sequence (P23977 whole entry): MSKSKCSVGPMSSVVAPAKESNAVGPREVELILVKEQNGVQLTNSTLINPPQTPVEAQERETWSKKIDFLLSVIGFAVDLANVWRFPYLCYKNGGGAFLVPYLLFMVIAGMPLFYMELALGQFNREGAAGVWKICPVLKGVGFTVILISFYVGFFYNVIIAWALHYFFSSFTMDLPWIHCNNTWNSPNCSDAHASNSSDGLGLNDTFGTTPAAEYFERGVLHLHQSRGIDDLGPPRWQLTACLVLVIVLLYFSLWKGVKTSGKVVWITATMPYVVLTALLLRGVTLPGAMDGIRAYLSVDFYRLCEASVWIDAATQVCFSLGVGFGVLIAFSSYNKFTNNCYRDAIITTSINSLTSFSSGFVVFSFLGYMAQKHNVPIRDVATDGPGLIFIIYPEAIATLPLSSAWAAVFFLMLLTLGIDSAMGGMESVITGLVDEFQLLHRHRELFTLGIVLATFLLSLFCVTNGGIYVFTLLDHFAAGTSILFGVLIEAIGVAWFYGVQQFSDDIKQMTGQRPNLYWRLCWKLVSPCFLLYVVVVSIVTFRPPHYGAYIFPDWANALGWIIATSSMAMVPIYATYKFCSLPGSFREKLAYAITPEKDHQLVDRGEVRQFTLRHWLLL

Row | SMILES | IC50 [1] [nM] | IC50 [2] [nM] | IC50 [3] [nM] | IC50 ([3]; synaptosomes, 3H-NA, read-out: NA-uptake IC50) [nM]
1 | O=c1ccc2ccc(O[C@@H]3C[C@H]4CCC[C@@H](C3)N4)cc2o1 [Compound A1, exo-7-(9-Aza-bicyclo[3.3.1]non-3-yloxy)-chromen-2-one hydrochloric acid salt] | 1.3 | 240 | 76 | –
2 | CN1[C@@H]2CCC[C@H]1C[C@H](Oc1ccc3ccc(=O)oc3c1)C2 [Compound A2, exo-7-(9-Methyl-9-aza-bicyclo[3.3.1]non-3-yloxy)-chromen-2-one hydrochloric acid salt] | 2.9 | 150 | – | 270
